Assays:
FGFR1 = FGFR1 (Homo sapiens (Human), UniProt P11362); experiment: FGFR1 kinase activity at the molecular level (ELISA, Poly(Glu,Tyr) 4:1 substrate); format: biochemical; details: kinase domain recombinant protein, 5 μM ATP
Protocol: (§1) 100 μL/well of 2 mg/mL OPD developing solution (diluted with 0.1M citric acid-sodium citrate buffer containing 0.03% H2O2 (pH=5.4)), and reacted in dark for 1-10 minutes at 25° C.

FGFR2 = FGFR2 (Homo sapiens (Human), UniProt P21802); experiment: FGFR2 kinase activity at the molecular level (ELISA, Poly(Glu,Tyr) 4:1 substrate); format: biochemical; details: kinase domain recombinant protein, 5 μM ATP
Protocol: as §1

FGFR1, sequence (P11362 478-767): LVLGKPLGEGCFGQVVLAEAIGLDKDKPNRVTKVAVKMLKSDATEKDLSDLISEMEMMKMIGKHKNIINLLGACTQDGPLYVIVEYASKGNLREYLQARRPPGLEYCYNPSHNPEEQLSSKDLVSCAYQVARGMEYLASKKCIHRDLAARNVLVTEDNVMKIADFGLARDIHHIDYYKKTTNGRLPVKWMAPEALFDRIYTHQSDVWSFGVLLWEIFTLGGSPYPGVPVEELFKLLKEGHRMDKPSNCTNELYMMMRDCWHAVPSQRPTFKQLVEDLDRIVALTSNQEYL
FGFR2, sequence (P21802 481-770): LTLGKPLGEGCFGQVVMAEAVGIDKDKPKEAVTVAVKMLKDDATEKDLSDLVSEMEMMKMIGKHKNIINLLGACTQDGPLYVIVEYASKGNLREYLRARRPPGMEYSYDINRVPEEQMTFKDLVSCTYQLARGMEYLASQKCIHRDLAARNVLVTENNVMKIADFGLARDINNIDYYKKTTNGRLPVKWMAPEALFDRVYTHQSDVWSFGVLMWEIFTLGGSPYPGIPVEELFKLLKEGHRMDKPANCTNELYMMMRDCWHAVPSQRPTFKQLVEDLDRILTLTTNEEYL

| IC50 (FGFR1) [nM] | IC50 (FGFR2) [nM] | SMILES |
| --- | --- | --- |
| < 100 | < 100 | COc1cc(OC)c(F)c(-c2ccc3c(NC(=O)c4ccc(N5CCCN(C)CC5)cc4)n[nH]c3c2)c1F [Example 95, N-(6-(2,6-difluoro-3,5-dimethoxyphenyl)-1H-indazole-3-yl)-4-(4-methyl-1,4-diazepane-1-yl)benzamide] |
| < 100 | < 100 | COc1cc(C(=O)Nc2n[nH]c3cc(-c4c(F)c(OC)cc(OC)c4F)ccc23)ccc1N1CCNC(C)(C)C1 [Example 97, N-(6-(2,6-difluoro-3,5-dimethoxyphenyl)-1H-indazole-3-yl)-4-(3,3-dimethylpiperazine-1-yl)-3-methoxybenzamide] |
| < 100 | < 100 | CCN1CCN(c2ccc(C(=O)Nc3n[nH]c4nc(-c5c(Cl)c(OC)cc(OC)c5Cl)ccc34)cn2)CC1 [Example 86, N-(6-(2,6-dichloro-3,5-dimethoxyphenyl)-1H-pyrazolo [3,4-b]pyridin-3-yl)-6-(4-ethylpiperazine-1-yl)nicotinamide] |
| < 100 | < 100 | COc1cc(OC)c(Cl)c(-c2ccc3c(NC(=O)c4ccc(N5C[C@@H](C)N[C@@H](C)C5)nc4)n[nH]c3n2)c1Cl [Example 71] |
| < 100 | < 100 | COc1cc(OC)c(Cl)c(-c2ccc3c(NC(=O)c4ccc(N5CCN(C)CC5)nc4)n[nH]c3n2)c1Cl [Example 85, N-(6-(2,6-dichloro-3,5-dimethoxyphenyl)-1H-pyrazolo [3,4-b]pyridin-3-yl)-6-(4-methylpiperazine-1-yl)nicotinamide] |
| < 100 | < 100 | COc1cc(OC)c(Cl)c(-c2ccc3c(NC(=O)c4ccc(N5CCC(N(C)C)C5)cc4)n[nH]c3n2)c1Cl (stereo not drawn) [Example 100] |
| < 100 | < 100 | COc1cc(OC)c(F)c(-c2ccc3c(NC(=O)c4ccc(N5CCC(N(C)C)C5)cc4)n[nH]c3c2)c1F (stereo not drawn) [Example 98, N-(6-(2,6-difluoro-3,5-dimethoxyphenyl)-1H-indazole-3-yl)-4-(3-(dimethylamino)pyrrolidine-1-yl)benzamide] |
| < 100 | < 100 | COc1cc(OC)c(Cl)c(-c2ccc3c(NC(=O)c4cnn(CCO)c4)n[nH]c3c2)c1Cl [Example 31, N-(6-(2,6-dichloro-3,5-dimethoxyphenyl)-1H-indazole-3-yl)-1-(2-hydroxyethyl)-1H-pyrazol-4-formamide] |
| < 100 | < 100 | COc1cc(OC)cc(-c2ccc3c(NC(=O)c4ccc(N5C[C@@H](C)N[C@@H](C)C5)cc4)n[nH]c3c2)c1 [Example 29, N-(6-(3,5-dimethoxyphenyl)-1H-indazole-3-yl)-4-((3R, 5S)-3,5-dimethylpiperazine-1-yl)benzamide] |
| < 100 | < 100 | COc1cc(OC)c(Cl)c(-c2ccc3c(NC(=O)c4ccc(N5CCN(CCO)CC5)cc4)n[nH]c3c2)c1Cl [Example 27, N-(6-(2,6-dichloro-3,5-dimethoxyphenyl)-1H-indazole-3-yl)-4-(4-(2-hydroxyethyl)piperazinyl)benzamide] |
| < 100 | < 100 | COc1cc(OC)c(Cl)c(-c2ccc3c(NC(=O)c4ccc(N5C[C@@H](C)N(C)[C@@H](C)C5)cc4)n[nH]c3n2)c1Cl [Example 90] |
| < 100 | < 100 | COc1cc(OC)c(Cl)c(-c2ncc3c(NC(=O)c4ccc(N5CCN(C)CC5)cc4)n[nH]c3n2)c1Cl [Example 83] |
| < 100 | < 100 | COc1cc(OC)c(Cl)c(-c2ccc3c(NC(=O)c4ccc(N5CCN(C6CC6)CC5)cc4)n[nH]c3n2)c1Cl [Example 89] |
| < 100 | < 100 | COc1cc(OC)c(Cl)c(-c2ccc3c(NC(=O)c4ccc(N5C[C@@H](C)N[C@@H](C)C5)cn4)n[nH]c3c2)c1Cl [Example 21, N-(6-(2,6-dichloro-3,5-dimethoxyphenyl)-1H-indazole-3-yl)-5-((3R,5S)-3,5-dimethyl-1-yl)pyridine amide] |
| < 100 | < 100 | COc1cc(OC)c(Cl)c(-c2ccc3c(NC(=O)c4ccc(N5CCNC(C)(C)C5)cc4)n[nH]c3n2)c1Cl [Example 72] |
| < 100 | < 100 | COc1cc(OC)c(Cl)c(-c2ccc3c(NC(=O)c4ccc(N5C[C@@H](C)N[C@@H](C)C5)cc4)n[nH]c3n2)c1Cl [Example 64, N-(6-(2,6-dichloro-3,5-dimethoxyphenyl)-1H-pyrazolo [3,4-b]pyridin-3-yl)-4-((3S,5R)-3,5-dimethylpiperazine-1-yl)benzamide] |
| < 100 | < 100 | COc1cc(OC)c(Cl)c(-c2ccc3c(NC(=O)c4ccc(N5CCNC(C)(C)C5)nc4)n[nH]c3n2)c1Cl [Example 87, N-(6-(2,6-dichloro-3,5-dimethoxyphenyl)-1H-pyrazolo [3,4-b]pyridin-3-yl)-6-(3,3-dimethylpiperazine-1-yl)nicotinamide] |

| IC50 (FGFR1) [nM] | IC50 (FGFR2) [nM] | SMILES |
| --- | --- | --- |
| < 100 | < 100 | COc1cc(OC)c(Cl)c(-c2ccc3c(NC(=O)c4ccc(N5CCN(C(C)C)CC5)cc4)n[nH]c3c2)c1Cl [Example 24, N-(6-(2,6-dichloro-3,5-dimethoxyphenyl)-1H-indazole-3-yl)-4-(4-isopropyl-1-yl)benzamide] |
| < 100 | < 100 | COc1cc(OC)c(Cl)c(-c2ccc3c(NC(=O)c4cnc(N5CCN(C)CC5)nc4)n[nH]c3n2)c1Cl [Example 92, N-(6-(2,6-dichloro-3,5-dimethoxyphenyl)-1H-pyrazolo [3,4-b]pyridin-3-yl)-2-(4-methylpiperazine-1-yl)pyrimidine-5-formamide] |
| < 100 | < 100 | CCN1CCN(c2ccc(C(=O)Nc3n[nH]c4nc(-c5c(Cl)c(OC)cc(OC)c5Cl)ccc34)cc2)CC1 [Example 65, N-(6-(2,6-dichloro-3,5-dimethoxyphenyl)-1H-pyrazolo [3,4-b]pyridin-3-yl)-4-(4-ethylpiperazine-1-yl)benzamide] |
| < 100 | < 100 | COc1cc(OC)c(Cl)c(-c2ccc3c(NC(=O)c4ccc(N5CCN(C6CC6)CC5)nc4)n[nH]c3n2)c1Cl [Example 88, 6-(4-cyclopropylpiperazine-1-yl)-N-(6-(2,6-dichloro-3,5-dimethoxyphenyl)-1H-pyrazolo [3,4-b]pyridin-3-yl)nicotinamide] |
| < 100 | < 100 | COc1cc(OC)c(F)c(-c2ccc3c(NC(=O)c4ccc(CN5CCN(C)CC5)cc4)n[nH]c3c2)c1F [Example 94, N-(6-(2,6-difluoro-3,5-dimethoxyphenyl)-1H-indazole-3-yl)-4-((4-methylpiperazine-1-yl)methyl)benzamide] |
| < 100 | < 100 | COCCN1CCN(c2ccc(C(=O)Nc3n[nH]c4nc(-c5c(Cl)c(OC)cc(OC)c5Cl)ccc34)cc2)CC1 [Example 67] |
| < 100 | < 100 | COc1cc(OC)c(Cl)c(-c2ccc3c(NC(=O)c4ccc(N5CCNC(C)(C)C5)cc4)n[nH]c3c2)c1Cl [Example 22, N-(6-(2,6-dichloro-3,5-dimethoxyphenyl)-1H-indazole-3-yl)-4-(3,3-dimethyl-1-yl)benzamide] |
| < 100 | < 100 | COc1cc(OC)c(F)c(-c2ccc3c(NC(=O)c4ccc(N5CCN(C)CC5)cc4)n[nH]c3c2)c1F [Example 45, N-(6-(2,6-difluoro-3,5-dimethoxyphenyl)-1H-indazole-3-yl)-4-(4-methylpiperazine-1-yl)benzamide] |
| < 100 | < 100 | COc1cc(OC)c(F)c(-c2ccc3c(NC(=O)c4ccc(N5CCNC(C)(C)C5)cc4)n[nH]c3c2)c1F [Example 46, N-(6-(2,6-difluoro-3,5-dimethoxyphenyl)-1H-indazole-3-yl)-4-(3,3-dimethylpiperazine-1-yl)benzamide] |
| < 100 | < 100 | COc1cc(OC)c(F)c(-c2ccc3c(NC(=O)c4cnc(N5CCN(C)CC5)nc4)n[nH]c3c2)c1F [Example 96, N-(6-(2,6-difluoro-3,5-dimethoxyphenyl)-1H-indazole-3-yl)-2-(4-methylpiperazine-1-yl) pyrimidine-5-formamide] |
| < 100 | < 100 | COc1cc(OC)c(F)c(-c2ccc3c(NC(=O)c4ccc(N5C[C@@H](C)N[C@@H](C)C5)cc4)n[nH]c3c2)c1 [Example 55] |
| < 100 | < 100 | CCN1CCN(c2ccc(C(=O)Nc3n[nH]c4cc(-c5c(F)c(OC)cc(OC)c5F)ccc34)cc2)CC1 [Example 47, N-(6-(2,6-difluoro-3,5-dimethoxyphenyl)-1H-indazole-3-yl)-4-(4-ethylpiperazine-1-yl)benzamide] |
| < 100 | < 100 | COc1cc(OC)c(Cl)c(-c2ccc3c(NC(=O)c4ccc(N5CCN(C(C)=O)CC5)cc4)n[nH]c3c2)c1Cl [Example 36, 4-(4-acetylpiperazine-1-yl)-N-(6-(2,6-dichloro-3,5-dimethoxyphenyl)-1H-indazole-3-yl)benzamide] |
| < 100 | < 100 | COc1cc(OC)c(Cl)c(-c2ccc3c(NC(=O)c4ccc(NC(=O)CN(C)C)cc4)n[nH]c3c2)c1Cl [Example 28, N-(6-(2,6-dichloro-3,5-dimethoxyphenyl)-1H-indazole-3-yl)-4-(2-(dimethylamino)acetylamino)benzamide] |
| < 100 | < 100 | COc1cc(OC)c(F)c(-c2ccc3c(NC(=O)c4ccc(N5CCN(C)CC5)cc4)n[nH]c3n2)c1F [Example 48, N-(6-(2,6-difluoro-3,5-dimethoxyphenyl)-1H-pyrazolo [3,4-b]pyridine-3-yl)-4-(4-methylpiperazine-1-yl)benzamide] |
| < 100 | < 100 | COc1cc(OC)c(F)c(-c2ccc3c(NC(=O)c4ccc(N5CCCCC5)cc4)n[nH]c3c2)c1F [Example 93, N-(6-(2,6-difluoro-3,5-dimethoxyphenyl)-1H-indazole-3-yl)-4-(piperidine-1-yl)benzamide] |
